Tests used:
[1] = test system: blood brain barrier; test: Evans Blue dye extravasation across the blood brain barrier; type: in vivo, mice; settings: single i.v. injection 100 μl 0.01 nM, 1 h before dye
Method: The objective of this experiment was to determine if the blood brain barrier could be modulated by activation of adenosine receptors. NECA is a non-selective adenosine receptor agonist, with similar affinities for A1, A2A and A3 adenosine receptors and a low affinity for the A2b adenosine receptor. In order to determine if activation of adenosine receptors would induce extravasation of Evans Blue dye across the blood brain barrier (BBB), mice were treated with: NECA, a non-selective adenosine receptor agonist (n=5, 100 μl 0.01 nM); SCH58261, an A2A adenosine receptor specific antagonist (n=5, 1 mg/kg); pertussis toxin, an agent known to induce BBB leakiness and as such used as a positive control (n=7, 200 μl); and, PBS as a vehicle control (n=5, 100 μl). CD73^−/− mice, which lack the ability to produce extracellular adenosine, were also treated with NECA (n=4, 100 μl 0.01 nM). Treatments were administered as a single i.v. injection one hour prior to i.v. injection of 200 μl 1% Evans Blue dye ([…] total dye injected). Four hours after administration of Evans Blue, mice were anesthetized with a ketamine/xylazine mix and perfused via the left ventricle with ice cold PBS. […] Following extraction, the tissue/solvent mixture was centrifuged at 500×g for 30 minutes and 100 μl of supernatant was read on a BioTex spectrophotometer at 620 nm. Data is expressed as μg Evans Blue/ml DMF.

[2] = test system: blood brain barrier; test: Fluorimetric analysis of labeled dextrans in brain after i.v. drug administration; type: in vivo, mice
Method: C57BL/6 mice from Jackson Laboratories were used as wild types. All mice used were aged 7-9 weeks and weighed between 20-25 g. All rats were aged 8 weeks and weighed 200-220 g. Mice and rats were bred and housed under specific pathogen-free conditions.
The adenosine receptor agonists NECA, CCPA and CGS 21860 were purchased from Tocris. Each was dissolved in DMSO then diluted in PBS to the desired concentration; in most cases final DMSO concentrations were <0.5% (vol/vol). For vehicle controls, DMSO was diluted in PBS to the same concentration. Dehydrated dextrans labeled with either FITC or Texas Red were purchased from Invitrogen and re-suspended in PBS to 10 mg ml^−1. All experiments involving dextran injection used 0.5 mg dextran in PBS. In experiments where drug and dextran were injected concomitantly, 0.5 mg of dextran was mixed with the drug to the desired concentration in a final volume of 200 μl. All injections were retro-orbital i.v. with a 27-gauge needle. In the SCH 58261 experiment, groups were administered vehicle or SCH 58261 for 4 d. Vehicle/drug and dextrans were injected on day 5 and tissues were collected 3 h after vehicle/drug administration. In Lexiscan experiments, Lexiscan was administered i.v. with 3 injections, 5 min apart and tissues were collected at 15 min unless otherwise indicated.
In dose-response experiments and experiments with the A1 AR and A2A AR knock-out mice, drugs and dextrans were injected concomitantly. After 3 h, the mice were anesthetized with ketamine/xylazine and subjected to a nose cone containing isoflurane. They were perfused with 25-50 ml ice-cold PBS through the left ventricle of the heart then decapitated. Their brains were removed, weighed and frozen for later analysis.
Ice-cold 50 mM Tris-Cl (pH 7.6) was added to frozen brains (100 μl per 100 mg brain) and were to thawed on ice. They were homogenized manually with ˜45 strokes of a dounce homogenizer in plastic 1.5 ml microfuge tubes then spun at 16.1 g in a microfuge for 30 min at room temperature (rt). The supernatants were transferred to new tubes and an equal volume absolute methanol was added. The samples were spun again at 16.1 g for 30 min at rt. Supernatant (200 μl) was transferred to a Corning costar 96 well black polystyrene assay plate (clear bottom). Additionally, a series of standards containing 0.001-10 μg ml^−1 dextran in 50% Tris-Cl/50% absolute methanol (vol/vol) was added to each plate. Absolute concentrations of dextrans were derived from these standard curves. Fluorimetric analysis was performed on a BioTek Synergy 4. FITC-dextran was detected at 488/519 (excitation/emission) and Texas Red-dextran was detected at 592/618.

[3] = test system: Z310 cells; test: Jurkat cell migration across Z310-seeded Transwell (choroid plexus); type: cell-based, murine; settings: Z310 cells on Transwell, migrated cells counted after 24 hours, n=1
Method: The choroid plexus (“CP”) controls lymphocyte migration into the CNS. The CP expresses the A1 and A2A adenosine receptors. EAE is prevented in mice when A2A adenosine receptor activity is blocked. EAE is enhanced when the A1 adenosine receptor is missing. It was hypothesized that A2A adenosine receptor activation promotes lymphocyte migration across the CP. Z310 cells are a murine choroid plexus cell line. To test the hypothesis, Transwell membranes were seeded with Z310 cells and allowed to grow to confluencey. 2×10^6 Jurkat cells were added to the upper chamber with or with out NECA (n=1, general AR agonist), CCPA (n=1, AAR agonist), CGS 21860 (n=1, A2AAR agonist), or DMSO vehicle (n=1). After 24 hours, migrated cells in the lower chamber were counted. Values are relative to the number of cells that migrate through non-Z310 seeded transwells and the results are shown in FIG. 12.

[4] = test system: hCMEC/D3 cells; test: Jurkat cell migration across hCMEC/D3-seeded Transwell (in vitro BBB); type: cell-based, human; settings: hCMEC/D3 on Transwell, migrated cells counted after 24 hours
Text: The blood brain barrier (“BBB”) is comprised of endothelial cells. During late stages of EAE, lymphocytes are known to cross the BBB. In order to determine if adenosine receptor stimulation of brain endothelial cells could promote lymphocyte migration through the BBB, an in vitro BBB was established. The human brain endothelial cell line hCMEC/D3 (Weksler et al., “Blood-brain Barrier-specific Properties of a Human Adult Brain Endothelial Cell Line,” […] (2005); Poller et al., “The Human Brain Endothelial Cell Line hCMEC/D3 as a Human Blood-brain Barrier Model for Drug Transport Studies,” J. Neurochem. 107(5):1358-1368 (2008), which are hereby incorporated by reference in their entirety) was obtained, which has been previously described as having BBB properties.
hCMEC/D3 cells were seeded onto Transwell and allowed to grow to confluencey. 2×10^6 Jurkat cells were added to the upper chamber with or without NECA (general adenosine receptor [AR] agonist), CCPA (A1 AR agonist), CGS 21860 (A2A AR agonist), or DMSO vehicle. After 24 hours, migrated cells in the lower chamber were counted. Values are relative to the number of cells that migrate through non-HCMECD3 seeded transwells.

[5] = WT mice, 3 h after i.v. administration

Structure (SMILES): CCNC(=O)[C@H]1O[C@@H](n2cnc3c(N)ncnc32)[C@H](O)[C@@H]1O [NECA, 5′-N-ethylcarboxamidoadenosine]
- Evans Blue dye migration across the BBB vs. PBS control ([1]; CD73−/− mice): almost five fold increase
- Evans Blue dye migration across the BBB vs. control mice ([1]; WT mice): increase over control mice
- levels of i.v.-administered 10,000 Da dextrans in brain compared to wild type mice ([2]; A1−/− mice, 3 h after i.v. administration): significantly lower levels
- levels of i.v.-administered 10,000 Da dextrans in brain compared to wild type mice ([2]; A2A−/− mice, 3 h after i.v. administration): significantly lower levels
- time of maximum entry of labeled dextran into the CNS post-treatment ([2]; WT mice, 10,000 Da FITC-dextran co-administered with drug at T0): 4 to 6 h
- CNS entry of 10,000 Da dextrans compared to vehicle [2, 5]: dose-dependent increase
- CNS entry of 70,000 Da dextrans compared to vehicle [2, 5]: dose-dependent increase
- time post-treatment by which dextran levels returned to baseline ([2]; WT mice, Texas Red-dextran injected after drug, 19.5 h collection time): ≤ 18 h
- detectable levels of dextran in the brain at 8 h post-treatment ([2]; WT mice, Texas Red-dextran injected at indicated time after drug, 9.5 h collection time): decreased from the maximum
- dose giving maximum entry of dextrans into the CNS ([2]; WT mice, i.v., 100 μl of 25 μM): 0.80 µg
- lymphocyte (Jurkat) migration across the CP [3]: induced migration
- lymphocyte (Jurkat) migration across the in vitro BBB [4]: induced some migration

From US20110262442A1, “COMPOSITIONS FOR TREATING CNS DISORDERS” (Adenios, Inc., priority 2009, published 2011)
